Data on three molecules can be found in patent US20240225978A1, “METHODS AND COMPOSITIONS FOR PHARMACOLOGICAL TREATMENT OF BLEPHAROPTOSIS” (priority 2021, published 2024).

Structures can show the parent of a compound that is named as a salt.

In series [1] the test system is cosmetic blepharoptosis. Description: Controlled study of topical naphazoline 0.1% to improve cosmetic blepharoptosis. The series is classed as in vivo, human. On the procedure: A comparative study was conducted to investigate the effect of an ophthalmic solution containing naphazoline 0.1% on cosmetic blepharoptosis. Two groups, the control group and treatment group each consisting of 5 subjects, were matched in terms of age and gender. The control group received one drop of normal saline while the treatment group received one drop of an ophthalmic solution containing naphazoline 0.1%. At both 30 minutes and 120 minutes after drop administration, external photographs were obtained and analyzed using Image J imaging software. MRD-1 and the distance between the upper and lower eyelid margins were measured to quantitatively assess cosmetic blepharoptosis. Secondary effects were also recorded, including conjunctival injection, eye pain or irritation, light sensitivity, and pupil size.

In series [2] the test system is functional blepharoptosis. Description: Randomized, double-blinded, controlled study of blepharoptosis treatment with naphazoline 0.1% ophthalmic solution. The series is classed as in vivo, human. On the procedure:
To evaluate the effects of an ophthalmic solution containing an α adrenergic agonist on blepharoptosis, a randomized, double-blinded, controlled study was conducted using naphazoline 0.1%. Participants with either unilateral or bilateral upper eyelid blepharoptosis were randomized to receive either control eye drops (control group) or an ophthalmic solution containing active ingredient naphazoline 0.1% (treatment group).
The composition of the treatment group included naphazoline hydrochloride (concentration 0.1% w/v), sodium chloride, boric acid, calcium chloride, magnesium chloride, potassium chloride, sodium borate, PURITE®, methylcellulose, and purified water. The ophthalmic drops of the control group were composed of all of the preceding compounds except for naphazoline hydrochloride.
Baseline external photographs of all participants were obtained before eye drop administration. Visual field and contrast sensitivity testing were also tested at baseline. Visual field testing was conducted using an OCULUS Easyfield® perimeter. Contrast sensitivity was tested using a Pelli-Robson Contrast Sensitivity Chart (Pelli D G, Robson J, Wilkins A J. The design of a new letter chart for measuring contrast sensitivity. Clin Vision Sci. 1988; 2187-99). After one eye drop was administered to one or both eyes depending on the presence of unilateral or bilateral blepharoptosis, a second photo was obtained 30 minutes later. After 60 minutes, visual field and contrast sensitivity tests were repeated. After 120 minutes, a third and final photo was obtained.
MRD-1 is the distance in millimeters from the upper eyelid margin to the light reflex within the pupil. Measurements were made using Image J software (US National Institutes of Health, Bethesda, MD, U.S.A., http://imagej.nih.gov/ij) by a single designated, blinded investigator. The pupil diameter was also measured at all time points. Secondary effects were recorded and included subject-reported eye irritation, pain, blurry vision, light sensitivity, as well as examiner-noted eye injection, eyelid retraction, and pupil diameter. MRD-1 at the two post-administration time points constituted the primary endpoint. Secondary endpoints included visual field assessment and contrast sensitivity testing.

The test system of series [3] is cosmetic blepharoptosis. Nature of the series: Case study of cosmetic blepharoptosis treatment with naphazoline 0.1%. The series is classed as in vivo, human. On the procedure:
They also had brow asymmetry due to compensatory right eyebrow elevation, a separate cosmetic concern. One drop of an ophthalmic solution containing naphazoline 0.1% was administered to the right eye. After 30 minutes, the eyelid was over-elevated with an MRD-1 of 5.5 mm due to continued compensatory brow elevation of the subject's right eyebrow (FIG. 5b). […] Three hours after drop administration, the eyelid and brow symmetry were maintained (FIG. 5d).

Series [4] deals with functional blepharoptosis. Nature of the series: Randomized, controlled study of blepharoptosis treatment with tetrahydrozoline 0.1% ophthalmic solution. The series is classed as in vivo, human. The protocol:
To evaluate the effects of an ophthalmic solution containing an α adrenergic agonist (tetrahydrozoline) on blepharoptosis, a randomized, controlled study was conducted. Participants with both unilateral or bilateral blepharoptosis were randomized to receive either the control eye drop or an ophthalmic solution containing active ingredient tetrahydrozoline 0.1%. Subjects and drop administrators were blinded to the intervention. […] The composition of the treatment group included tetrahydrozoline hydrochloride (concentration 0.1% w/v), sodium chloride, boric acid, calcium chloride, magnesium chloride, potassium chloride, sodium borate, PURITE®, methylcellulose, and purified water. The ophthalmic drops of the control group were composed of all of the preceding compounds except for tetrahydrozoline hydrochloride. Baseline external photographs of all participants were obtained before eye drop administration. After one eye drop was administered, a second photo was obtained 30 minutes later. After 90 minutes, a third and final photo was obtained. The pupil diameter in millimeters was also measured in photos at all time points. Measurements were made using Image J software by a single designated, blinded investigator. Secondary effects from the intervention were recorded including subject-reported eye irritation, pain, blurry vision, light sensitivity, as well as examiner-noted eye injection, eyelid retraction, and pupil size change from baseline.

Series [5] deals with α adrenergic receptors within Müller's muscle. Particulars: ophthalmic use for pupil dilation; background statement; cited from earlier work.

`c1ccc2c(CC3=NCCN3)cccc2c1` [Naphazoline, naphazoline hydrochloride]: the “difference in secondary effects, including pupil size, between the two groups” value in series [1] (0.1% ophthalmic solution) is given as “no difference”. Besides, in series [1] (0.1% ophthalmic solution, 30 and 120 minutes), the “improvement in MRD-1 and eyelid separation compared to the control group” value was “statistically significant improvement”. Also, the “MRD1 Δ 30 minutes (mean, %)” value in series [1] (one drop 0.1% ophthalmic solution, 5 subjects, baseline MRD1 2.4 mm, control (normal saline) 3.8, P 0.01) is reported as 42%. Further, the “MRD1 Δ 120 minutes (mean, %)” value in series [1] (one drop 0.1% ophthalmic solution, 5 subjects, control 1.9, P 0.02) is given as 38%. Besides, the “Eyelid Margin Distance Δ 120 minutes (mean, mm)” value in series [1] (one drop 0.1%, control 0.02, P 0.03) was found to be 1.33 mm. The “Pupil Size Δ 30 minutes (mean, %)” value in series [1] (one drop 0.1%, control 6.7, P 0.37) is on record as 10%. Moreover, the “Minor Side Effects (%)” value in series [1] (one drop 0.1%, control 20, P 0.49) amounted to 20%. The “Eyelid Margin Distance Δ 30 minutes (mean, mm)” value in series [1] (one drop 0.1%, distance between upper and lower eyelid margins, control 0.03, P 0.009) worked out at 1.45 mm. The “difference in proportion of individuals who reported minor side effects, treatment vs control group” value in series [2] (0.1% ophthalmic solution) was “not statistically significant”. In addition, in series [2] (0.1% ophthalmic solution, 60 minutes after drop), the “visual field and contrast sensitivity improvement compared to the control group” value is recorded as “greater”. For the same molecule, the “improvement in MRD-1 compared to the control group” value in series [2] (0.1% ophthalmic solution, at 30 minutes and 120 minutes) is listed as “statistically significant improvement”. The “Contrast Sensitivity Δ (mean)” value in series [2] (Pelli-Robson chart, 60 minutes after one drop 0.1%, baseline 1.29, control 0.03, P 0.03) came out at 0.69. Further, in series [2] (one drop of 0.1% w/v ophthalmic solution, 19 subjects, baseline MRD1 0.93 mm, 30 minutes after drop, control 0.02, P <0.001), the “MRD1 Δ 30 minutes (mean, mm)” value turned out to be 2.15 mm. The “MRD1 Δ 120 minutes (mean, mm)” value in series [2] (one drop of 0.1% w/v ophthalmic solution, 19 subjects, 120 minutes after drop, control 0.01, P 0.009) was 2.08 mm. Further, the “overall effect on eyelids, visual field, contrast sensitivity and cosmetic appearance” value in series [2] (one drop of ophthalmic composition 0.1% administered twice daily (as summarised in b67 for Example 1)) was “resulted in eyelid elevation, improvement of a superior visual field defect, increased contrast sensitivity, and improved cosmetic appearance of the eyes, eyelids, and eyebrows”. In series [2] (proportion of subjects, one drop 0.1%, control 9.5, P 0.17), the “Secondary Effects (%)” value was 10.5%. The “VF Δ (mean, % correct)” value in series [2] (visual field, OCULUS Easyfield perimeter, 60 minutes after one drop 0.1%, baseline 33.8, control 2.1, P <0.001) stood at 56.6 % correct. The “eyelid and brow symmetry after brow relaxation” value in series [3] (one drop 0.1%, FIG. 5c (120 minutes)) is “achieved both eyelid and brow symmetry”. In addition, the “eyelid and brow symmetry three hours after drop administration” value in series [3] (one drop 0.1%, three hours) is recorded as “maintained”. Moreover, in series [3] (subject, one drop 0.1% ophthalmic solution to the right eye, after 30 minutes, baseline 2.5 mm, eyelid over-elevated due to compensatory brow elevation), the “MRD-1 of the right eye” value stood at 5.5 mm.
Regarding `c1ccc2c(c1)CCCC2C1=NCCN1` (centres unmarked) [Tetrahydrozoline, tetrahydrozoline hydrochloride], in series [4] (0.1% ophthalmic solution), the “difference in proportion of individuals who reported minor side effects, treatment vs control group” value is “not statistically significant” and the “pupillary size change compared to the control” value is “greater in the treatment group compared to the control, however, this change was not statistically significant”. The “blepharoptosis improvement compared to the control group” value in series [4] (0.1% ophthalmic solution, both time points) is on record as “statistically significant at both time points”. The “Minor Side Effects (%)” value in series [4] (one drop 0.1%, control 2.1, P 0.07) was 6.7%. For the same molecule, the “Pupil Size Δ 30 minutes (mean, %)” value in series [4] (one drop 0.1%, control 5.8, P 0.09) amounted to 9.3%. For the same molecule, the “MRD1 Δ 30 minutes (mean, mm)” value in series [4] (one drop of 0.1% w/v ophthalmic solution, 11 subjects, baseline MRD1 0.85 mm, control 0.04, P 0.01) is recorded as 2.01 mm. Besides, the “MRD1 Δ 120 minutes (mean, mm)” value in series [4] (one drop of 0.1% w/v ophthalmic solution, 11 subjects, control 0.02, P 0.009) was determined as 1.97 mm.
Turning to `CNC[C@H](O)c1cccc(O)c1` [phenylephrine], in series [5], the “duration of pupillary dilation and disabling light sensitivity” value is on record as “up to seven hours”; the “duration of the effect of eyelid elevation” value was “less than ten minutes”.
